The record followed here is patent US10214507B2, “Carbazole-containing amides, carbamates, and ureas as cryptochrome modulators” (Reset Therapeutics, Inc., priority 2014, dated 2019).

A word on the EC50: it is the concentration needed to bring the measured effect to its halfway point. High values mean a less potent agent, low ones a more potent agent.

In this assay the test system is stable U20S reporter cells harboring Per2-dLuc. Kind of assay: Per2 assay for evaluating the potency of test compounds (circadian luciferase reporter). The format is cell-based. As to conditions: amplitude of Per2-dLuc luminescence vs log concentration. The method, boiled down:
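U2OS Per2-dLuc cells grown 48 h at 37 °C, then synchronized with 5 μM forskolin plus 1 mM luciferin and dosed with 3-fold compound dilutions.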
In general terms: In a reporter assay the amount or activity of a reporter protein is the signal.
Take `O=C1COCCN1CC(O)Cn1c2ccc(F)cc2c2cc(F)ccc21` (stereo not drawn) [Compound 55, 4-(3-(3,6-difluoro-9H-carbazol-9-yl)-2-hydroxypropyl)morpholin-3-one]: the EC50 was determined as 738 nM.

`O=C1N(CC(O)Cn2c3ccc(F)cc3c3cc(F)ccc32)CCN1c1ccccc1` (stereo not drawn) [Compound 89, 1-(3-(3,6-difluoro-9H-carbazol-9-yl)-2-hydroxypropyl)-3-phenylimidazolidin-2-one] came in with an EC50 of 438 nM.

The compound `CC1CN(CC(O)Cn2c3ccc(F)cc3c3cc(F)ccc32)C(=O)N1` (stereo not drawn) [Compound 85, 1-(3-(3,6-difluoro-9H-carbazol-9-yl)-2-hydroxypropyl)-4-methylimidazolidin-2-one] had an EC50 of 667 nM.

As for `O=C1N(CC(O)Cn2c3ccc(F)cc3c3cc(F)ccc32)CCN1C1CCC1` (stereo not drawn) [Compound 93, 1-cyclobutyl-3-(3-(3,6-difluoro-9H-carbazol-9-yl)-2-hydroxypropyl)imidazolidin-2-one], the response was half-maximal at 129 nM (EC50).

For `C[C@@H]1CCC(=O)N1C[C@H](O)Cn1c2ccccc2c2ccccc21` [Compound 111, (R)-1-((R)-3-(9H-carbazol-9-yl)-2-hydroxypropyl)-5-methylpyrrolidin-2-one], the EC50 came to 95 nM.

The compound `CC1CCC(=O)N(CC(O)Cn2c3ccc(F)cc3c3cc(F)ccc32)C1` (stereo not drawn) [Compound 37, 1-(3-(3,6-difluoro-9H-carbazol-9-yl)-2-hydroxypropyl)-5-methylpiperidin-2-one] came in with an EC50 of 224 nM.

As to `C[C@H]1CCC(=O)N1C[C@H](O)Cn1c2ccccc2c2ccccc21` [Compound 112, (S)-1-((R)-3-(9H-carbazol-9-yl)-2-hydroxypropyl)-5-methylpyrrolidin-2-one], the EC50 turned out to be 470 nM.

On to `C[C@@H]1CCN(C[C@H](O)Cn2c3ccccc3c3ccccc32)C1=O` [Compound 118, (R)-1-((R)-3-(9H-carbazol-9-yl)-2-hydroxypropyl)-3-methylpyrrolidin-2-one], for which it took 120 nM to reach a half-maximal effect (EC50).

As for `O=C1[C@H]2CC[C@H](C2)N1C[C@H](O)Cn1c2ccc(F)cc2c2cc(F)ccc21` [Compound 105, (1R,4S)-2-((R)-3-(3,6-difluoro-9H-carbazol-9-yl)-2-hydroxypropyl)-2-azabicyclo[2.2.1]heptan-3-one], the EC50 came out at 54 nM.

Take `O=C1NCCCN1CC(O)Cn1c2ccccc2c2ccccc21` (stereo not drawn) [Compound 3, 1-(3-(9H-carbazol-9-yl)-2-hydroxypropyl)tetrahydropyrimidin-2(1H)-one]: the EC50 was 299 nM.

As to `C[C@@H]1CCC(=O)N(C[C@H](O)Cn2c3ccc(F)cc3c3cc(F)ccc32)C1` [Compound 134, (R)-1-((R)-3-(3,6-difluoro-9H-carbazol-9-yl)-2-hydroxypropyl)-5-methylpiperidin-2-one], the 50% effective concentration (EC50) is 397 nM.

`CCC1CCN(CC(O)Cn2c3ccc(F)cc3c3cc(F)ccc32)C1=O` (stereo not drawn) [Compound 17, 1-(3-(3,6-difluoro-9H-carbazol-9-yl)-2-hydroxypropyl)-3-ethylpyrrolidin-2-one] had an EC50 of 417 nM.

`CC1CCCC(=O)N1CC(O)Cn1c2ccc(F)cc2c2cc(F)ccc21` (stereo not drawn) [Compound 39, 1-(3-(3,6-difluoro-9H-carbazol-9-yl)-2-hydroxypropyl)-6-methylpiperidin-2-one] displayed an EC50 of 342 nM.

Turning to `C[C@H]1CN(C[C@H](O)Cn2c3ccc(F)cc3c3cc(F)ccc32)C(=O)N1` [Compound 135, (S)-1-((R)-3-(3,6-difluoro-9H-carbazol-9-yl)-2-hydroxypropyl)-4-methylimidazolidin-2-one], the EC50 came out at 1130 nM.

Regarding `CC(O)(CN1CCCN(C2CCCCC2)C1=O)Cn1c2ccc(F)cc2c2cc(F)ccc21` (stereo not drawn) [Compound 82, 1-cyclohexyl-3-(3-(3,6-difluoro-9H-carbazol-9-yl)-2-hydroxy-2-methylpropyl)tetrahydropyrimidin-2(1H)-one], the EC50 came out at 1190 nM.

As for `O=C1C(C2CCCC2)CCN1CC(O)Cn1c2ccc(F)cc2c2cc(F)ccc21` (stereo not drawn) [Compound 18, 3-cyclopentyl-1-(3-(3,6-difluoro-9H-carbazol-9-yl)-2-hydroxypropyl)pyrrolidin-2-one], the midpoint of the response, the EC50, lay at 338 nM.

For the compound `O=C1[C@H](F)CCN1C[C@H](O)Cn1c2ccccc2c2ccccc21` [Compound 121, (R)-1-((R)-3-(9H-carbazol-9-yl)-2-hydroxypropyl)-3-fluoropyrrolidin-2-one], the EC50 came out at 210 nM.

Compound `CCN1CCN(CC(O)Cn2c3ccc(F)cc3c3cc(F)ccc32)C1=O` (stereo not drawn) [Compound 73, 1-(3-(3,6-difluoro-9H-carbazol-9-yl)-2-hydroxypropyl)-3-ethylimidazolidin-2-one] registered an EC50 of 1110 nM.

In the case of `CC1CCN(CC(C)(O)Cn2c3ccc(F)cc3c3cc(F)ccc32)C(=O)C1` (stereo not drawn) [Compound 36, 1-(3-(3,6-difluoro-9H-carbazol-9-yl)-2-hydroxy-2-methylpropyl)-4-methylpiperidin-2-one], the midpoint of the response, the EC50, lay at 760 nM.

`CC1CCCC(=O)N1CC(C)(O)Cn1c2ccc(F)cc2c2cc(F)ccc21` (stereo not drawn) [Compound 40, 1-(3-(3,6-difluoro-9H-carbazol-9-yl)-2-hydroxy-2-methylpropyl)-6-methylpiperidin-2-one] yielded an EC50 of 484 nM.

In turn, `C[C@H]1CCC(=O)N(C[C@H](O)Cn2c3ccccc3c3ccccc32)C1` [Compound 129, (S)-1-((R)-3-(9H-carbazol-9-yl)-2-hydroxypropyl)-5-methylpiperidin-2-one] showed an EC50 of 748 nM.

`O=C1N(CC(O)Cn2c3ccc(F)cc3c3cc(F)ccc32)CCCN1C1CC1` (stereo not drawn) [Compound 83, 1-cyclopropyl-3-(3-(3,6-difluoro-9H-carbazol-9-yl)-2-hydroxypropyl)tetrahydropyrimidin-2(1H)-one] had an EC50 of 147 nM.

The compound `CN1CCCN(CC(O)Cn2c3ccc(F)cc3c3cc(F)ccc32)C1=O` (stereo not drawn) [Compound 6, 1-(3-(3,6-difluoro-9H-carbazol-9-yl)-2-hydroxypropyl)-3-methyltetrahydropyrimidin-2(1H)-one] had an EC50 of 719 nM.

As for `O=C1N(CC(O)Cn2c3ccc(F)cc3c3cc(F)ccc32)CCC1(F)F` (stereo not drawn) [Compound 58, 1-(3-(3,6-difluoro-9H-carbazol-9-yl)-2-hydroxypropyl)-3,3-difluoropyrrolidin-2-one], the response was half-maximal at 716 nM (EC50).

The compound `CCC1CC(=O)N(CC(C)(O)Cn2c3ccc(F)cc3c3cc(F)ccc32)C1` (stereo not drawn) [Compound 46, 1-(3-(3,6-difluoro-9H-carbazol-9-yl)-2-hydroxy-2-methylpropyl)-4-ethylpyrrolidin-2-one] registered an EC50 of 618 nM.

In turn, `CC(C)C1CC(=O)N(CC(O)Cn2c3ccc(F)cc3c3cc(F)ccc32)C1` (stereo not drawn) [Compound 41, 1-(3-(3,6-difluoro-9H-carbazol-9-yl)-2-hydroxypropyl)-4-isopropylpyrrolidin-2-one] gave an EC50 of 373 nM.

Take `CC(C)N1CCN(CC(O)Cn2c3ccccc3c3ccccc32)C1=O` (stereo not drawn) [Compound 98, 1-(3-(9H-carbazol-9-yl)-2-hydroxypropyl)-3-isopropylimidazolidin-2-one]: the EC50 amounted to 269 nM.

The compound `C[C@@H]1CCC(=O)N1C[C@@H](O)Cn1c2ccccc2c2ccccc21` [Compound 113, (R)-1-((S)-3-(9H-carbazol-9-yl)-2-hydroxypropyl)-5-methylpyrrolidin-2-one] showed an EC50 of 948 nM.

Regarding `CC1CC(=O)N(CC(C)(O)Cn2c3ccc(F)cc3c3cc(F)ccc32)C1` (stereo not drawn) [Compound 44, 1-(3-(3,6-difluoro-9H-carbazol-9-yl)-2-hydroxy-2-methylpropyl)-4-methylpyrrolidin-2-one], the EC50 was determined as 1060 nM.

`CN1CCCN(CC(O)Cn2c3ccccc3c3ccccc32)C1=O` (stereo not drawn) [Compound 2, 1-(3-(9H-carbazol-9-yl)-2-hydroxypropyl)-3-methyltetrahydropyrimidin-2(1H)-one] returned an EC50 of 736 nM.
